# Values quoted from earlier work, collected in US20230041069A1, “ELECTROLYTE FOR ELECTROCHEMICAL GAS SENSOR AND ELECTROCHEMICAL GAS SENSOR INCLUDING THE SAME” (Samsung Electronics Co., Ltd., priority 2021, published 2023).
compound,measurement,value
"CCn1cc[n+](C)c1.N#C[N-]C#N [compound 6, 1-Ethyl-3-methylimidazolium dicyanamide]",pKa of an anion's conjugate acid,5
